Assay results reported in patent US10059694B2, “2-aminopyrimidine compound and pharmaceutical composition and use thereof” (Shanghai Institute of Materia Medica, Chinese Academy of …, priority 2014, dated 2018).

Assays:
[1] = target: T1, EGFR^wt (Homo sapiens, UniProt P00533); test: kinase inhibitory activity test (ELISA), EGFR^WT; format: biochemical; conditions: ATP 5 μM, 1 hour at 37° C.
T1 construct: purchased Millipore
How it was run: (§1)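 ELISA on poly(Glu,Tyr)4:1-coated plates; kinase reaction with 5 μM ATP (final) in 50 mM HEPES pH 7.4, 50 mM MgCl2, 5 mM MnCl2, 0.2 mM Na3VO4, 1 mM DTT, 1 h at 37° C. Phosphotyrosine detected via PY99/HRP and OPD at 490 nm; IC50 by four-parameter fit.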

[2] = target: T2, EGFR^T790M/L858R (Homo sapiens, UniProt P00533, L858R/T790M); test: kinase inhibitory activity test (ELISA), EGFR^T790M/L858R; format: biochemical
T2 construct: purchased Millipore
T2 sequence (P00533 25-1210 T790M/L858R): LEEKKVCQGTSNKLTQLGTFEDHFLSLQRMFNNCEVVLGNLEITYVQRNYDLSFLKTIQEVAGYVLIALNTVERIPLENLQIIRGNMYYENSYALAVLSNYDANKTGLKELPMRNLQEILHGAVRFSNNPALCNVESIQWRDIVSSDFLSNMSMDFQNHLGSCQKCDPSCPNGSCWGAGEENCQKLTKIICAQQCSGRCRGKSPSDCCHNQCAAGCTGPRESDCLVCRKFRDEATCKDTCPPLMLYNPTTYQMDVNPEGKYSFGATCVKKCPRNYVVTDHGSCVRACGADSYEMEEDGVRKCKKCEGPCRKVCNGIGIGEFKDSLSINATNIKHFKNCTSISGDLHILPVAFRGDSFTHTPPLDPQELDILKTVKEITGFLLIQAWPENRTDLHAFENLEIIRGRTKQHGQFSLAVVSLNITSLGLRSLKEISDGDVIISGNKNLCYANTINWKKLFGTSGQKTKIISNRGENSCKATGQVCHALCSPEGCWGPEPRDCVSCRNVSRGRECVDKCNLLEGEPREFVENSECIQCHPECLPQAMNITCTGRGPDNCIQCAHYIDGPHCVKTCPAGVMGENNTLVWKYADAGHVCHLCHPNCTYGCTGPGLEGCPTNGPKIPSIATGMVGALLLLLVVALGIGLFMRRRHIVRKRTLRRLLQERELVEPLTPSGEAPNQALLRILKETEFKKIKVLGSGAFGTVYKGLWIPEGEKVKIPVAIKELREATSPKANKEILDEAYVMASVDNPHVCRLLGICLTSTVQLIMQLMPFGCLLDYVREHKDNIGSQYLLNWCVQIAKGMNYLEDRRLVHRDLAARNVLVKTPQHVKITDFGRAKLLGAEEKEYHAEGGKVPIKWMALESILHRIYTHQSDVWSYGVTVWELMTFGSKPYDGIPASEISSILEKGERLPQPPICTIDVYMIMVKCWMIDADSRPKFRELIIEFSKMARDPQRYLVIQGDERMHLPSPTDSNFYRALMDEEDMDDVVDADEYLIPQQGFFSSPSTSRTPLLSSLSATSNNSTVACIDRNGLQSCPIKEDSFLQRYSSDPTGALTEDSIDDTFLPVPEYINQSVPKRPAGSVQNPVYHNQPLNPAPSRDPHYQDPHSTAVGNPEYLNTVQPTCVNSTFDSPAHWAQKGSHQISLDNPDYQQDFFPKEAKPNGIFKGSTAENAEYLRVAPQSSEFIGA
How it was run: as §1

[3] = test system: human non-small cell lung cancer NCI-H1975 cell line; test: SRB proliferation assay, NCI-H1975 cells; format: cell-based; conditions: NCI-H1975, SRB, 72 h, read-out: IC50 NCI-H1975
How it was run: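 NCI-H1975 cells in log phase were allowed to adhere for 24 h, then treated with compound in triplicate for 72 h. Cells were TCA-fixed and SRB-stained, with OD read at 515 nm; IC50 derived from growth inhibition versus DMSO control.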

T1 sequence (P00533 25-1210): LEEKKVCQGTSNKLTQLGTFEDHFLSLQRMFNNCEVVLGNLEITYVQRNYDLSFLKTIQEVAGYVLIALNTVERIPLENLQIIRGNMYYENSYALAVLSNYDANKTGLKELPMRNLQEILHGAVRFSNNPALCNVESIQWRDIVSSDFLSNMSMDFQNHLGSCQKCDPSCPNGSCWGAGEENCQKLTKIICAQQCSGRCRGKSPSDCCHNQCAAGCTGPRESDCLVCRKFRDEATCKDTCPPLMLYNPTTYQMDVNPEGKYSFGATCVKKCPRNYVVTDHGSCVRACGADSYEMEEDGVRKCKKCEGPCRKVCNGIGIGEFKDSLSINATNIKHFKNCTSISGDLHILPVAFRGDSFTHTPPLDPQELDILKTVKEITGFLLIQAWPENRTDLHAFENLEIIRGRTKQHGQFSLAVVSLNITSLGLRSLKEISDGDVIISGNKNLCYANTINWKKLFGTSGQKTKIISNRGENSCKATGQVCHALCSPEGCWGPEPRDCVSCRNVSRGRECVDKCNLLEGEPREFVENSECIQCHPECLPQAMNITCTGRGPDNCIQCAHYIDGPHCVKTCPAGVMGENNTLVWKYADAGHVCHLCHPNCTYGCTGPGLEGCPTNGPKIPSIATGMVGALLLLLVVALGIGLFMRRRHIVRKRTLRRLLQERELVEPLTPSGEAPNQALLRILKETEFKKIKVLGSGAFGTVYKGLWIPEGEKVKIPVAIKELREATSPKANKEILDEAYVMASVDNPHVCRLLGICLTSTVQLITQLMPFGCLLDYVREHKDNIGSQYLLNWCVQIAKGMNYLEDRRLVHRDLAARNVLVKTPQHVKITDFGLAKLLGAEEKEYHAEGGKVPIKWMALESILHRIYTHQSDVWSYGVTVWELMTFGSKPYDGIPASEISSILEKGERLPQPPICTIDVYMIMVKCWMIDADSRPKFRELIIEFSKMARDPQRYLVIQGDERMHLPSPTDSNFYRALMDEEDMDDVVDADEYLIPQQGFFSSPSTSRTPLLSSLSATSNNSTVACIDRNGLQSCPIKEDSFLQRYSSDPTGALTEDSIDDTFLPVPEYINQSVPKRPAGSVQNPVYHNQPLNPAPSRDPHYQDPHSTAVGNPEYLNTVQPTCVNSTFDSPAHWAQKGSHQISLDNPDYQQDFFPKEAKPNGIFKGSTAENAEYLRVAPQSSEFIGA

IC50 [1]: 9.4 nM | IC50 ([2]; ELISA, ATP 5 μM, 1 hour at 37° C.): 0.4 nM | kinase inhibitory activity (in words) ([2]; summary of Table 1): potent | IC50 [3]: 1 to 56 nM
SMILES: C=CC(=O)Nc1cc(Nc2ncc(Cl)c(Nc3ccc4ccccc4c3)n2)c(OC)cc1N(C)CCN(C)C [CCB120067, N-((5-((5-chloro-4-((naphthalen-2-yl)amino))pyrimidin-2-yl)amino)-2-((N-methyl-N-dimethylaminoethyl)amino)-4-methoxyphenyl)acrylamide]
